The numbers were not newly measured in patent publication EP3085364A1, “PHARMACEUTICAL COMBINED PREPARATION CONTAINING HMG-COA REDUCTASE INHIBITOR AND CHOLESTEROL ABSORPTION INHIBITOR” (Alvogen Korea Co., Ltd., priority 2013, dated 2015), which cites them from elsewhere.

Like-named read-outs stand apart in the source and are kept apart here.

For data set [1] the following is noted: room temperature.

Turning to `O=C1[C@H](CC[C@H](O)c2ccc(F)cc2)[C@@H](c2ccc(O)cc2)N1c1ccc(F)cc1` [Ezetimibe, 1-(4-fluorophenyl)-(3R)-[3-(4-fluorophenyl)-(3S)-hydroxypropyl]-(4S)-(4-hydroxyphenyl)-2-azetidinone], the solubility in water entry is on record as “practically insoluble”. The stability entry in data set [1] is “stable”. Besides, the “solubility in organic solvents” value (ethanol, methanol, or acetone) was “freely to very soluble”.

For the compound `CC(C)c1nc(N(C)S(C)(=O)=O)nc(-c2ccc(F)cc2)c1/C=C/[C@@H](O)C[C@@H](O)CC(=O)O` [Rosuvastatin calcium, (E)-7-[4-(4-fluorophenyl)-6-isopropyl-2-[methyl(methylsulfonyl)amino]pyrimidin-5-yl]-(3R,5S)-3,5-dihydroxyhept-6-enic acid], the solubility in water result was “sparingly soluble”. Besides, the “solubility in organic solvents” value (N,N-dimethylformamide, acetone, or acetonitrile) is on record as “soluble”.
